Measurements taken from patent US20140249147A1, “Substituted Bicyclic Aza-Heterocycles and Analogues as Sirtuin Modulators” (GlaxoSmithKline, LLC, priority 2011, published 2014).

Legend:
SIRT1 [1] = molecular target: T1, SIRT1 (Homo sapiens, UniProt Q96EB6); assay: TAMRA based mass spectrometry assay of SIRT1 activation; assay type: biochemical; details: TAMRA peptide substrate; for Emax: 25 min, percent maximum fold activation relative to control (100%), read-out: TAMRA % Fold Act; for TAMRA EC1.5 (μM): concentration giving 150% activation of SIRT1
T1 sequence (Q96EB6 1-747): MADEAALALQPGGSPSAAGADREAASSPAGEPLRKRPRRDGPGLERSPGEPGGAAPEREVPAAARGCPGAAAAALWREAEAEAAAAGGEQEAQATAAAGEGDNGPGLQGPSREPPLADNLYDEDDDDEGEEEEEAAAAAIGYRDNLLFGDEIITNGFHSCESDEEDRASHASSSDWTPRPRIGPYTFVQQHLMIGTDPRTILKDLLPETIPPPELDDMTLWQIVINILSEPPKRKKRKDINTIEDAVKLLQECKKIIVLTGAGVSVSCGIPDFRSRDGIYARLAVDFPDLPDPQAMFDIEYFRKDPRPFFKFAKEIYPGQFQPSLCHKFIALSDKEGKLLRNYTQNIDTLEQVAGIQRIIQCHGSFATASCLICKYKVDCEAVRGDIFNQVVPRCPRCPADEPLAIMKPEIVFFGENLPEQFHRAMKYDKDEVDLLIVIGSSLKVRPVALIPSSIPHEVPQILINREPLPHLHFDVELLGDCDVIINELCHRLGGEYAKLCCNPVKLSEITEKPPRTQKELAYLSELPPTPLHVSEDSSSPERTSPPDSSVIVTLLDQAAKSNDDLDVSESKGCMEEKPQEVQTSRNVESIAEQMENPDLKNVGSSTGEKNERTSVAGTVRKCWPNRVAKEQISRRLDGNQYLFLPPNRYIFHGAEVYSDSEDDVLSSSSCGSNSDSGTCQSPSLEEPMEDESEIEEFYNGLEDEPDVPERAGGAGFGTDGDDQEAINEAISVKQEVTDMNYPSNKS
From the text: (§1) Mass spectrometry based assays were used to identify modulators of SIRT1 activity. The TAMRA based assay utilized a peptide having 20 amino acid residues as follows: Ac-EE-K(biotin)-GQSTSSHSK(Ac)NleSTEG-K(5TMR)-EE-NH2 (SEQ ID NO: 1), wherein K(Ac) is an acetylated lysine residue and Nle is a norleucine. The peptide was labeled with the fluorophore 5TMR (excitation 540 nm/emission 580 nm) at the C-terminus. The sequence of the peptide substrate was based on p53 with several modifications. In addition, the methionine residue naturally present in the sequence was replaced with the norleucine because the methionine may be susceptible to oxidation during synthesis and purification. The Trp based assay utilized a peptide having an amino acid residues as follows: Ac—R—H—K—K(Ac)—W—NH2 (SEQ ID NO: 2).
The TAMRA based mass spectrometry assay was conducted as follows: 0.5 μM peptide substrate and 120 μM βNAD^+ was incubated with 10 nM SIRT1 for 25 minutes at 25° C. in a reaction buffer (50 mM Tris-acetate pH 8, 137 mM NaCl, 2.7 mM KCl, 1 mM MgCl2, 5 mM DTT, 0.05% BSA). The SIRT1 protein was obtained by cloning the SirT1 gene into a T7-promoter containing vector, which was then transformed and expressed in BL21(DE3) bacterial cells. Test compound was added at varying concentrations to this reaction mixture and the resulting reactions were monitored. After the 25 minute incubation with SIRT1, 10 μL of 10% formic acid was added to stop the reaction. The resulting reactions were sealed and frozen for later mass spec analysis. Determination of the amount of deacetylated substrate peptide formed (or, alternatively, the amount of O-acetyl-ADP-ribose (OAADPR) generated) by the sirtuin-mediated NAD-dependent deacetylation reaction allowed for the precise measurement of relative SIRT1 activity in the presence of varying concentrations of the test compound versus control reactions lacking the test compound.
(§2) A control for inhibition of sirtuin activity was conducted by adding 1 μL of 500 mM nicotinamide as a negative control at the start of the reaction (e.g., permits determination of maximum sirtuin inhibition). A control for activation of sirtuin activity was conducted using 10 nM of sirtuin protein, with 1 μL of DMSO in place of compound, to determine the amount of deacetylation of the substrate at a given time point within the linear range of the assay. This time point was the same as that used for test compounds and, within the linear range, the endpoint represents a change in velocity. For the above assay, SIRT1 protein was expressed and purified as follows. The SirT1 gene was cloned into a T7-promoter containing vector and transformed into BL21(DE3). The protein was expressed by induction with 1 mM IPTG as an N-terminal His-tag fusion protein at 18° C. overnight and harvested at 30,000×g. Cells were lysed with lysozyme in lysis buffer (50 mM Tris-HCl, 2 mM Tris[2-carboxyethyl]phosphine (TCEP), 10 μM ZnCl2, 200 mM NaCl) and further treated with sonication for 10 min for complete lysis. The protein was purified over a Ni-NTA column (Amersham) and fractions containing pure protein were pooled, concentrated and run over a sizing column (Sephadex S200 26/60 global). The peak containing soluble protein was collected and run on an Ion-exchange column (MonoQ). Gradient elution (200 mM-500 mM NaCl) yielded pure protein. This protein was concentrated and dialyzed against dialysis buffer (20 mM Tris-HCl, 2 mM TCEP) overnight. The protein was aliquoted and frozen at −80° C. until further use.
Sirtuin-modulating compounds of Formula (I) that activated SIRT1 were identified using the assay described above and are shown below in Table 1. The EC1.5 values represent the concentration of test compounds that result in 150% activation of SIRT1. The EC1.5 values for the activating compounds of Formula (I) are represented by A (EC1.5<1 μM), B (EC1.5 1-25 μM), C (EC1.5>25 μM). […]

SIRT1 [2] = molecular target: T1, SIRT1; assay: Trp mass spectrometry assay of SIRT1 activation; assay type: biochemical; details: Trp peptide substrate; for TYP EC1.5 (μM): concentration giving 150% activation of SIRT1; for TYP % Fold Act: percent maximum fold activation relative to control (100%)
From the text: as §1
The Trp mass spectrometry assay was conducted as follows. 0.5 μM peptide substrate and 120 μM βNAD^+ were incubated with 10 nM SIRT1 for 25 minutes at 25° C. in a reaction buffer (50 mM HEPES pH 7.5, […], 1 mM DTT, 0.05% BSA). The SIRT1 protein was obtained by cloning the SirT 1 gene into a T7-promoter containing vector, which was then expressed in BL21(DE3) bacterial cells and purified as described in further detail below. Test compound was added at varying concentrations to this reaction mixture and the resulting reactions were monitored. After the 25 minute incubation with SIRT1, 10 μL of 10% formic acid was added to stop the reaction. The resulting reactions were sealed and frozen for later mass spec analysis. The relative SIRT1 activity was then determined by measuring the amount of O-acetyl-ADP-ribose (OAADPR) formed (or, alternatively, the amount of deacetylated Trp peptide generated) by the NAD-dependent sirtuin deacetylation reaction in the presence of varying concentrations of the test compound versus control reactions lacking the test compound. The degree to which the test agent activated deacetylation by SIRT1 was expressed as EC1.5 (i.e., the concentration of compound required to increase SIRT1 activity by 50% over the control lacking test compound), and Percent Maximum Activation (i.e., the maximum activity relative to control (100%) obtained for the test compound).
as §2
Sirtuin-modulating compounds of Formula (I) that activated SIRT1 were identified using the assay described above and are shown below in Table 1. […]

Row | Compound | Emax (SIRT1 [1]) [%] | TAMRA EC1.5 (μM) (SIRT1 [1]) | TYP EC1.5 (μM) (SIRT1 [2]) | TYP % Fold Act (SIRT1 [2])
1 | O=C(Nc1nccs1)c1ccc2nnc(-c3cccc(OC(F)(F)F)c3)n2n1 [Compound 1, N-(thiazol-2-yl)-3-(3-(trifluoromethoxy)phenyl)-[1,2,4]triazolo[4,3-b]pyridazine-6-carboxamide] | < 350 | C (EC1.5>25 μM) | B (EC1.5 1-25 μM) | B (Fold Activation <350%)
2 | O=C(Nc1ccccn1)c1ccc2nnc(-c3cccc(N4CCOCC4)c3)n2n1 [Compound 4] | < 350 | C (EC1.5>25 μM) | C (EC1.5>25 μM) | B (Fold Activation <350%)
3 | O=C(Nc1nccs1)c1ccc2nnc(-c3cccc(N4CCOCC4)c3)n2n1 [Compound 5, 3-(3-morpholinophenyl)-N-(thiazol-2-yl)-[1,2,4]triazolo[4,3-b]pyridazine-6-carboxamide] | < 350 | C (EC1.5>25 μM) | C (EC1.5>25 μM) | B (Fold Activation <350%)
4 | O=C(Nc1cccc(C(F)(F)F)n1)c1ccc2nnc(-c3cccc(Cl)c3)n2n1 [Compound 6] | < 350 |  |  | B (Fold Activation <350%)
5 | Cc1cc(C)nc(NC(=O)c2ccc3nnc(-c4cccc(C(F)(F)F)c4)n3n2)c1 [Compound 8] | < 350 |  |  | B (Fold Activation <350%)
6 | O=C(Nc1ccc2ncc(-c3cccc(C(F)(F)F)c3)n2n1)c1cnccn1 [Compound 14] | < 350 | C (EC1.5>25 μM) | C (EC1.5>25 μM) | B (Fold Activation <350%)
7 | O=C(Nc1ccc2ncc(-c3ccccc3Cl)n2n1)c1cnccn1 [Compound 15] | < 350 | C (EC1.5>25 μM) | C (EC1.5>25 μM) | B (Fold Activation <350%)
8 | O=C(Nc1ccc2ncc(-c3cccc(F)c3)n2n1)c1ncccn1 [Compound 16] | < 350 | C (EC1.5>25 μM) | C (EC1.5>25 μM) | B (Fold Activation <350%)
9 | O=C(Nc1ccc2ncc(-c3cccc(C(F)(F)F)c3)n2n1)c1nccs1 [Compound 18] | < 350 | C (EC1.5>25 μM) | C (EC1.5>25 μM) | B (Fold Activation <350%)
10 | O=C(Nc1ccnc(C(F)(F)F)c1)c1ccc2ncc(-c3cccc(Cl)c3)n2n1 [Compound 19] | < 350 | B (EC1.5 1-25 μM) | C (EC1.5>25 μM) | B (Fold Activation <350%)

Second part, the molecule after the results:

Row | Emax (SIRT1 [1]) [%] | TAMRA EC1.5 (μM) (SIRT1 [1]) | TYP EC1.5 (μM) (SIRT1 [2]) | TYP % Fold Act (SIRT1 [2]) | Compound
11 | < 350 | C (EC1.5>25 μM) | C (EC1.5>25 μM) | B (Fold Activation <350%) | O=C(Nc1cccc(C(F)(F)F)n1)c1ccc2ncc(-c3ccccc3Cl)n2n1 [Compound 21]
12 | < 350 | C (EC1.5>25 μM) | C (EC1.5>25 μM) | B (Fold Activation <350%) | O=C(Nc1ccc2ncc(-c3ccccc3F)n2n1)c1nccs1 [Compound 22]
13 | < 350 | C (EC1.5>25 μM) | C (EC1.5>25 μM) | B (Fold Activation <350%) | O=C(Nc1ccc2ncc(-c3ccccc3F)n2n1)c1ccccn1 [Compound 23]
14 | < 350 | C (EC1.5>25 μM) | C (EC1.5>25 μM) | B (Fold Activation <350%) | O=C(Nc1cccc(N2CCOCC2)n1)c1ccc2ncc(-c3cccc(F)c3)n2n1 [Compound 38]
15 | < 350 | C (EC1.5>25 μM) | C (EC1.5>25 μM) | B (Fold Activation <350%) | O=C(Nc1cccc(N2CCOCC2)n1)c1ccc2ncc(-c3ccccc3Cl)n2n1 [Compound 44]
16 | ≥ 350 | A (EC1.5<1 μM) | A (EC1.5<1 μM) | B (Fold Activation <350%) | O=C(Nc1cccc(N2CCOCC2)n1)c1ccc2ncc(-c3cccc(C(F)(F)F)c3)n2n1 [Compound 48]
